± gives the expanded uncertainty stated by the source.
Tests used:
[1] = 298.15 K; 101.33 kPa; Liquid; Vibrating tube method
[2] = refractive index (Na D-line) (dimensionless); settings: 298.15 K; 101.33 kPa; Liquid; Standard Abbe refractometry
[3] = wn = mass fraction of the nth substance listed; settings: 298.15 K, 101 kPa, Liquid, Vibrating tube method

| mass density [1] | refractive index [2] | mass density ([3]; w1 = 0.0115) | mass density ([3]; w1 = 0.05) | mass density ([3]; w1 = 0.101) | mass density ([3]; w1 = 0.2011) | mass density ([3]; w1 = 0.3051) | mass density ([3]; w1 = 0.3993) | Compound |
| --- | --- | --- | --- | --- | --- | --- | --- | --- |
| 1075.12 ± 6.3 kg/m3 | 1.4659 ± 0.0009 |  |  |  |  |  |  | CCCC(=O)[O-].[NH3+]CCO [2-hydroxy ethylammonium butanoate] |
|  |  | 999.43 ± 2.2 kg/m3 | 1006.63 ± 8.8 kg/m3 | 1016.39 ± 11 kg/m3 | 1033.12 ± 8.9 kg/m3 | 1046.73 ± 7.6 kg/m3 | 1058.12 ± 7.3 kg/m3 | CCCC(=O)[O-].[NH3+]CCO [2-hydroxy ethylammonium butanoate] + O |

Source: the NIST ThermoML archive (doi:10.1021/acs.jced.7b00278)
